Data set [1] relates to mice. As to the kind of experiment: Antiarrhythmic: chloroform-induced cardiac arrhythmia in mice. In kind it is in vivo, mouse. To be noted: 15 min. after a 200 mg/kg intraperitoneal dose; significance <2. As to the method:
^2 A = Antiarrythmic. Less than 2/3 mouse hearts fibrillating 15 min.

Data set [2] has as its system rats. As to the kind of experiment: Bradycardia: heart rate by EKG in rats. In kind it is in vivo, rat. To be noted: for inhibition in vivo at 5 mg/kg: Rattus norvegicus, 0.75 h, 45 min. after a 5 mg/kg oral dose in rats, significance >10, read-out: B = Bradycardiac: percent decrease in heart rate. The protocol: […] Decrease in heart rate by more than 10% (>10) is considered a bradycardic effect.
Percent decrease in heart rate 45 min. after a 5
mg/kg oral dose in rats.

For data set [3], the system named is hypercholesterolemic mice. Kind of data set: Hypocholesterolemic: serum cholesterol in hypercholesterolemic mice. In kind it is in vivo, mouse. As to conditions: for inhibition in vivo at 200 mg/kg: Mus musculus, hypercholesterolemic mice, 2 oral doses of 200 mg/kg 20 hr. apart, significance >20, read-out: C = Hypocholesterolemic: percent decrease in serum cholesterol. As to the method:
Mice made hypercholesterolemic by being fed a high cholesterol-cholic acid diet for 7 days were dosed on the sixth and seventh days, p.o. After fasting overnight, reduction in serum cholesterol concentration by more than 15% (>15) from hypercholesterolemic control mice indicates activity.
^4 C = Hypocholesterolemic. Percent decrease in serum cholesterol in
hypercholesterolemic mice given 2 oral doses of 200 mg/kg drug candidate

Data set [4] is described as follows: Overall pharmacological profile. To be noted: in vivo.
The test system of data set [5] is rats. Kind of data set: Antiulcer: stress induced gastric ulcers in rats. It counts as in vivo, rat. As to conditions: for inhibition in vivo at 50 mg/kg: Rattus norvegicus, 4 hr. following a 50 mg/kg oral dose in rats, significance >60, read-out: U = Antiulcerative: percent inhibition of stress ulcers. As to the method:
Fasted rats were dosed, p.o., 30 minutes before immobilization in wire mesh and partial immersion in water for 4 hours. Inhibition of the resulting stress induced gastric ulcers by more than 60% (>60) indicates activity.
^6 U = Antiulcerative. Percent inhibition of stress ulcers 4 hr.
following a 50 mg/kg oral dose in rats.

In data set [6] the test system is spontaneously hypertensive rats (SHR). As to the kind of experiment: Antihypertensive: blood pressure (tail cuff) in spontaneously hypertensive rats (SHR). As to conditions: Rattus norvegicus; 6 hr. after a 100 mg/kg oral dose; significance >10; read-out: Antihypertensive: percent decrease in systolic blood pressure in spontaneously hypertensive rats. In kind it is in vivo, rat. As to the method:
Blood pressure was measured indirectly (tail cuff) in unanesthetized, unheated spontaneously hypertensive rats (SHR) before and 2, 4, and 6 hours after p.o. dosing. Reduction in mean pressure by more than 10% (>10) at any two consecutive measurement times after dosing indicates antihypertensive activity.

Another data set concerns glucose-loaded mice. As to the kind of experiment: Hypoglycemic, glucose-loaded mice. In kind it is in vivo, mouse. To be noted: glucose loaded mice, 100 mg/kg oral dose; significance >20. As to the method: Reduction in blood glucose concentration by more than 20% (>20) in fasted, glucose-loaded (1 gm/kg) mice one hour after dosing, p.o., indicates activity (test compound administered at same time as glucose load).
^5 H = Hypoglycemic. Percent decrease in serum glucose concentration
in glucose loaded mice hr. following a 100 mg/kg oral dose.

Data set [7] in a line: Central nervous system (CNS) depression/effects. To be noted: in vivo.
Data set [8] deals with mice. Kind of data set: Acute toxicity / autonomic effects observation. To be noted: mouse, in vivo. As to the method:
Mice were dosed at 300 mg/kg, per oral (p.o.) and […], interperitoneal (i.p.) for observation of any acute toxic symptoms or autonomic effects during the subsequent 72 hours. If none were noted, pharmacological evaluation proceeded employing doses and concentrations for each test based on appropriate multiples of doses required by suitable reference compounds. If acute toxicity was observed initially, the minimal toxic dose was determined and pharmacological screening doses were reduced proportionately.

A short description of data set [9]: Anticholinergic properties (overall statement). To be noted: in vivo.
Data set [10] has as its system hypercholesterolemic mice. As to the kind of experiment: HP-betalipoprotein: serum heparin precipitating lipoprotein (HPL). In kind it is in vivo, mouse. To be noted: 200 and 400 mg/kg, p.o. The text has this: Reduction of serum heparin precipitating lipoprotein (HPL) concentrations (corresponding to low density lipoprotein and very low density lipoprotein fractions) in the same hypercholesterolemic mice from Test 6 above by more than 20% (>20) from control animals indicates activity.

A further data set can be described thus: Estrogenic effects. As to conditions: in vivo.

Take `CSc1ccc(N2CC(CN3C(C)(C)CCCC3(C)C)=CC2=O)cc1` [Compound 8]: the “A = Antiarrythmic: mouse hearts fibrillating (of 3)” value (“A = Antiarrythmic” for short) in the data set with mice [1] is given as 3. Also, the inhibition in vivo at 5 mg/kg with rats [2] is 18%. In addition, the inhibition in vivo at 200 mg/kg in [3] worked out at 0%. In [4], the “Profile (comparison with another compound)” value (“Profile” below) is “generally similar to that of Compound 6”. Besides, in the data set with rats [5], the inhibition in vivo at 50 mg/kg turned out to be 50%. For the same compound, the inhibition in vivo at 100 mg/kg in [6] worked out at 25%.

In the case of `CC1(C)CCCC(C)(C)N1CC1=CC(=O)N(c2ccc(C(F)(F)F)cc2)C1` [Compound 7], the “H = Hypoglycemic: percent decrease in serum glucose concentration” value in the data set with glucose-loaded mice came out at 22%. Also, the “A = Antiarrythmic” value in the data set on mice [1] came to 3. Also, the inhibition in vivo at 5 mg/kg with rats [2] stood at 12%. Also, the inhibition in vivo at 200 mg/kg in [3] is 0%. Further, the “Profile” value in [4] was “generally similar to that of Compound 6”. In addition, the inhibition in vivo at 50 mg/kg with rats [5] is 38%. The inhibition in vivo at 100 mg/kg in [6] was 16%.

`COc1ccc(N2CC(CN3C(C)(C)CCCC3(C)C)=CC2=O)cc1OC` [Compound 12]: the “A = Antiarrythmic” value with mice [1] worked out at 2. For the same compound, in the data set on rats [2], the inhibition in vivo at 5 mg/kg is 13%. Also, the inhibition in vivo at 200 mg/kg in [3] amounted to 3%. In data set [4], the “Profile” value is given as “generally similar to that of Compound 6”. The inhibition in vivo at 50 mg/kg in the data set with rats [5] is 75%. Besides, the inhibition in vivo at 100 mg/kg in data set [6] amounted to 14%.

On to `CC1(C)CCCC(C)(C)N1CC1=CC(=O)N(c2cccc(C(F)(F)F)c2)C1` [Compound 1], for which the “H = Hypoglycemic: percent decrease in serum glucose concentration” value with glucose-loaded mice worked out at 14%. Further, the “CNS depression / CNS effects” value in [7] is on record as “absence of notable central nervous system (CNS) depression”. Moreover, the “A = Antiarrythmic” value in the data set on mice [1] is reported as 0. In addition, the “Acute toxicity / toxic effects” value in the data set on mice [8] is on record as “apparent lack of acute toxicity”. The inhibition in vivo at 5 mg/kg in the data set on rats [2] is 14%. In addition, the inhibition in vivo at 200 mg/kg in [3] came to 5%. In addition, the Anticholinergic properties/effects entry in data set [9] was “absence of notable”. Also, the inhibition in vivo at 50 mg/kg in the data set on rats [5] is 75%. In addition, the inhibition in vivo at 100 mg/kg in data set [6] turned out to be 19%.

Regarding `CC1(C)CCCC(C)(C)N1CC1=CC(=O)N(c2cc(C(F)(F)F)ccc2Cl)C1` [Compound 10], the “A = Antiarrythmic” value with mice [1] worked out at 3. Further, in [10], the HPL/cholesterol ratio result was “large reductions” and the “Heparin precipitating lipoproteins (HPL), in words” value is reported as “Marked reductions”. In addition, in the data set on rats [2], the inhibition in vivo at 5 mg/kg is 1%. The “Bradycardic effects, in words” value in the data set with rats [2] (rat, in vivo) was “No”. Further, the “Serum cholesterol, in words” value in [3] (200 and 400 mg/kg, p.o.) is recorded as “Marked reductions”. Besides, the inhibition in vivo at 200 mg/kg in [3] turned out to be 46%. Moreover, the Estrogenic effects entry in “Estrogenic effects” is reported as “No estrogenic effects”. Besides, the Anticholinergic properties/effects entry in data set [9] is “absence of evidence of anticholinergic effects”. The “Protection from stress-induced gastric ulcers, in words” value with rats [5] (50 mg/kg, p.o., rats) is recorded as “partially protected”. For the same compound, in the data set on rats [5], the inhibition in vivo at 50 mg/kg amounted to 75%. In addition, in data set [6], the inhibition in vivo at 100 mg/kg was 15%.
